This note sets out measurements from patent publication US20250018047A1, “METHODS AND COMPOSITIONS FOR TARGETED PROTEIN DEGRADATION” (Ranok Therapeutics (Hangzhou) Co. Ltd., priority 2021, published 2025).

A value given as a limit tells only on which side of the number the result lay.

In assay [1] the target is T1, KRAS(G12D)/SOS1 (Homo sapiens, UniProt P01116, G12D).
T1 construct: purchased Cisbio 63ADK000CB16PEG
Put plainly: KRAS(G12D)/SOS1 homogeneous time-resolved fluorescence (HTRF) assay. Format: binding. The note with it: absence of GTP, 4° C. for 3 hr. The procedure:
The test compound was mixed and incubated with reaction components, incubated in a sealed plate at 4° C. for 3 hr and fluorescence was measured using a PerkinElmer Envision plate reader.
(In general: TR-FRET usually uses a lanthanide donor and a delayed reading to cut background.)

For assay [2], the system named is A-427 human lung carcinoma. Put plainly: CellTiter-Glo cancer cell line proliferation assay, A-427. The assay is classed as cell-based. Particulars: Homo sapiens, A-427, 24 hr, read-out: A427 at 24 hrs, IC50. Here is the method: (§1) Cell lines were cultured according to ATCC and recommendations.
(§2) CellTiter-Glo® Reagent Cancer Cell Line Proliferation Assays
(§3) Cells were plated in 96-well tissue culture plates at 4,000 cells/well and incubated at 37° C./5% CO2 for 24 hr in 100 μl of media. […] Cells were then treated with test compounds at various concentrations with a final concentration of 0.5% DMSO/well, and then incubated at 37° C./5% CO2 for 24 hr. 100 μl of CellTiter-Glo® Reagent (Promega Corporation, Madison, WI) was added to each well and processed according manufacturer's protocol. Results were analyzed and IC50-values were calculated in GraphPad 7 software.
For orientation: Cellular ATP, detected with luciferase, serves as a proxy for viable cell number.

Assay [3] concerns the target T2, KRAS(G12D) (Homo sapiens, UniProt P01116, G12D).
T2 construct: endogenous in cells; host or cells: SW1990
In words: SW1990 WB assay (degradation DC50, Dmax). Format: cell-based. The note with it: Western blot, SW1990 cells.

The subject of assay [4] is AsPC-1 human pancreatic adenocarcinoma. Put plainly: CellTiter-Glo cancer cell line proliferation assay, AsPC-1. Format: cell-based. The note with it: Homo sapiens, ASPC1, 24 hr. Here is the method: as §1, §2, §3

T2 sequence (P01116 1-188 isoform P01116-2 G12D): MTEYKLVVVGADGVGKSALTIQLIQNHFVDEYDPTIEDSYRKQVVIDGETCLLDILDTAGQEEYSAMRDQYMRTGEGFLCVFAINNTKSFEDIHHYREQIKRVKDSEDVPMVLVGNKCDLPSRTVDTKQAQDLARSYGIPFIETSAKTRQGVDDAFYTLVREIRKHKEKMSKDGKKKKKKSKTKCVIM
T1 sequence (P01116 1-188 isoform P01116-2 G12D): as above

By IC50 is commonly meant the concentration that gives 50% inhibition. One may read the DC50 as the concentration at which degradation of the target reaches its halfway point. High values mean degradation only at high concentration, low ones degradation at low concentration. As usually defined, the Dmax is the largest share of the target that was removed. Higher therefore signals a fuller loss of target. `C#Cc1cccc2cc(O)cc(-c3ncc4c(N5CC6CCC(C5)N6)nc(OCC5(CN6CCN(CC7CCN(c8ccc9c(c8)C(=O)N(C8CCC(=O)NC8=O)C9=O)CC7)CC6)CC5)nc4c3F)c12` (stereo not drawn) [Compound 56]: the values for the IC50 in assay [1] and in assay [2] were under 0.1 µM and 0.1 to 1 µM, respectively. Also, the 50% degradation concentration (DC50) in assay [3] is under 0.1 µM. Also, the Dmax in assay [3] was over 50%.

Consider `C#Cc1c(F)ccc2cc(O)cc(-c3nc(OC)c4c(N5CC6CCC(C5)N6C(=O)C(F)(F)F)nc(OCC5(CN6CCN(CC7CCN(c8ccc9c(c8)CN(C8CCC(=O)NC8=O)C9=O)CC7)CC6)CC5)nc4c3F)c12` (stereo not drawn) [Compound 93], for which the figures for the IC50 in assay [1], in assay [2] and in assay [4] were under 0.1 µM, over 1 µM and 0.1 to 1 µM, respectively. The same compound gave a DC50 in assay [3] of 0.1 to 1 µM. In addition, in assay [3], the Dmax fell in the range of 10 to 50%.

As for `C#Cc1cccc2cc(O)cc(-c3ncc4c(N5CC6CCC(C5)N6)nc(OCC5(CN6CCN(CC7CCN(CCC(=O)N[C@@H](C(=O)N8C[C@@H](O)C[C@@H]8C(=O)NCc8ccc(-c9scnc9C)cc8)C(C)(C)C)CC7)CC6)CC5)nc4c3F)c12` [Compound 83], the results for the concentration for half-maximal inhibition (IC50) in assay [1], in assay [2] and in assay [4] were under 0.1 µM, over 1 µM and over 1 µM, respectively. The same compound displayed a DC50 in assay [3] of over 1 µM. Also, in assay [3], the Dmax is 10 to 50%.

Take `C#Cc1c(F)ccc2cc(O)cc(-c3ncc4c(N5CC6CCC(C5)N6)nc(OCC5(CN6CCN(C7CCN(c8ccc9c(c8)CN(C8CCC(=O)NC8=O)C9=O)CC7)CC6)CC5)nc4c3F)c12` (stereo not drawn) [Compound 104]: the half-maximal inhibitory concentration (IC50) in assay [1] was under 0.1 µM. Besides, in assay [3], the DC50 was under 0.1 µM and the greatest degradation seen (Dmax) was over 50%. This compound also yielded a half-maximal inhibitory concentration (IC50) in assay [4] of 0.1 to 1 µM.

Consider `C#Cc1cccc2cc(O)cc(-c3ncc4c(N5CC6CCC(C5)N6)nc(OCC5(CN6CCN(CC7CCN(c8ccc9c(c8)CN(C)C9=O)CC7)CC6)CC5)nc4c3F)c12` [Compound 81], for which the figures for the IC50 in assay [1], in assay [2] and in assay [4] were under 0.1 µM, 0.1 to 1 µM and 0.1 to 1 µM, respectively. The same compound displayed a half-maximal degradation concentration (DC50) in assay [3] of over 1 µM. In assay [3], the maximal degradation (Dmax) lay within 10 to 50%.

For `C#Cc1cccc2cc(O)cc(-c3ncc4c(N5CC6CCC(C5)N6)nc(OCC5(CN(C)CC6CCN(c7ccc8c(c7)CN(C7CCC(=O)NC7=O)C8=O)CC6)CC5)nc4c3F)c12` (stereo not drawn) [Compound 84], the half-maximal inhibitory concentration (IC50) in assay [2] is over 1 µM. In assay [3], this compound showed a 50% degradation concentration (DC50) of 0.1 to 1 µM and a maximal degradation (Dmax) of over 50%. In assay [4], the half-inhibitory concentration (IC50) is over 1 µM.

With `C#Cc1cccc2cc(O)cc(-c3ncc4c(N5CC6CCC(C5)N6)nc(OCC5(CN6CCN(CC7CCN(c8ccc9c(c8)CN(C8CCC(=O)NC8=O)C9=O)CC7)[C@@H](C7CC7)C6)CC5)nc4c3F)c12` (stereo partly drawn) [Compound 96], the results for the half-maximal inhibitory concentration (IC50) in assay [1], in assay [2] and in assay [4] were under 0.1 µM, 0.1 to 1 µM and under 0.1 µM, respectively. For the same compound, the DC50 in assay [3] is over 1 µM. Further, in assay [3], the Dmax fell in the range of 10 to 50%.

Turning to `C#Cc1c(F)ccc2cc(O)cc(-c3ncc4c(N5CC6CCC(C5)N6C(=O)CC)nc(OCC5(CN6CCN(CC7CCN(c8ccc9c(c8)CN(C8CCC(=O)NC8=O)C9=O)CC7)CC6)CC5)nc4c3F)c12` (stereo not drawn) [Compound 91], the IC50 in assay [2] and in assay [4] was over 1 µM in each case. In addition, the DC50 in assay [3] was over 1 µM. Further, in assay [3], the maximal degradation (Dmax) was under 10%.

Turning to `C#Cc1c(F)ccc2cc(O)cc(-c3nc(OC)c4c(N5CC6CCC(C5)N6)nc(OCC5(CN6CCN(CC7CCN(c8ccc9c(c8)CN(C8CCC(=O)NC8=O)C9=O)CC7)CC6)CC5)nc4c3F)c12` (stereo not drawn) [Compound 100], the values for the IC50 in assay [1], in assay [2] and in assay [4] were under 0.1 µM, 0.1 to 1 µM and under 0.1 µM, respectively. Moreover, in assay [3], the DC50 is over 1 µM. In addition, the Dmax in assay [3] was in the range of 10 to 50%.

As for `C#Cc1cccc2cc(O)cc(-c3ncc4c(N5CC6CCC(C5)N6)nc(OCC5(CN6CCN(CC7CCN(c8ccc(NC9CCC(=O)NC9=O)cc8)CC7)CC6)CC5)nc4c3F)c12` (stereo not drawn) [Compound 95], the IC50 in assay [1] was under 0.1 µM; in assay [2], 0.1 to 1 µM; in assay [4], 0.1 to 1 µM. In assay [3], this compound had a DC50 of over 1 µM. This compound yielded a Dmax in assay [3] of under 10%.

In the case of `C#Cc1c(F)ccc2cc(O)cc(-c3ncc4c(N5CC6CCC(C5)N6)nc(OCC5(CN6CCC(CN7CCN(c8ccc9c(c8)CN(C8CCC(=O)NC8=O)C9=O)CC7)CC6)CC5)nc4c3F)c12` (stereo not drawn) [Compound 99], the IC50 in assay [1] was under 0.1 µM; in assay [2], over 1 µM; in assay [4], under 0.1 µM. In assay [3], this compound showed a DC50 of under 0.1 µM. Also, the maximal degradation (Dmax) in assay [3] was over 50%.
